The values that follow come from PubChem BioAssay AID1259407 (Chemical Carcinogenesis Research Information System (CCRIS), 2018).

The data set relates to CCRIS mutagenicity, Ames/micronucleus/aberration tests. The data set can be described thus: CCRIS mutagenicity studies.
[1] abbreviates: Test System: AMES SALMONELLA TYPHIMURIUM, Strain/Indicator: TA97, Metabolic Activation: NONE, Method: PREINCUBATION

The source made the active and inactive calls. How the calls were made is not given here.

`CNC(=O)/C=C(\C)OP(=O)(OC)OC`: the mutagenic call is, setting by setting: (End Point: In vitro chromosomal aberrations, Test System: Human lymphocytes, Metabolic Activation: None) “active; positive (structural changes and ploidy)”; (Test System: AMES SALMONELLA TYPHIMURIUM, Strain/Indicator: TA97A, Metabolic Activation: NONE, Method: STANDARD PLATE) “inactive; negative”; (Test System: AMES SALMONELLA TYPHIMURIUM, Strain/Indicator: TA97A, Metabolic Activation: PLANT, HOMOGENATE, S-14, Method: STANDARD PLATE) “inactive; negative”; (Test System: AMES SALMONELLA TYPHIMURIUM, Strain/Indicator: TA97A, Metabolic Activation: S-9, Method: STANDARD PLATE) “inactive; negative”; (Test System: AMES SALMONELLA TYPHIMURIUM, Strain/Indicator: TA98, Metabolic Activation: NONE, Method: STANDARD PLATE) “inactive; negative”; (Test System: AMES SALMONELLA TYPHIMURIUM, Strain/Indicator: TA98, Metabolic Activation: PLANT, HOMOGENATE, S-14, Method: STANDARD PLATE) “inactive; negative”. Also, the mutagenic call is “inactive; negative” (Test System: AMES SALMONELLA TYPHIMURIUM, Strain/Indicator: TA98, Metabolic Activation: S-9, Method: STANDARD PLATE); “inactive; negative” (Test System: AMES SALMONELLA TYPHIMURIUM, Strain/Indicator: TA100, Metabolic Activation: NONE, Method: STANDARD PLATE); “inactive; negative” (Test System: AMES SALMONELLA TYPHIMURIUM, Strain/Indicator: TA100, Metabolic Activation: PLANT, HOMOGENATE, S-14, Method: STANDARD PLATE); “inactive; negative” (Test System: AMES SALMONELLA TYPHIMURIUM, Strain/Indicator: TA100, Metabolic Activation: S-9, Method: STANDARD PLATE); “inactive; negative” (Test System: AMES SALMONELLA TYPHIMURIUM, Strain/Indicator: TA1535, Metabolic Activation: PLANT, HOMOGENATE, S-14, Method: STANDARD PLATE); “inactive; negative” (Test System: AMES SALMONELLA TYPHIMURIUM, Strain/Indicator: TA1535, Metabolic Activation: S-9, Method: STANDARD PLATE). For the same compound, the mutagenic call (Test System: UDS HUMAN FIBROBLASTS, Strain/Indicator: THY INCORP (NON-S-PHASE), Metabolic Activation: NONE, Method: LIQUID SCINTILLATION COUNTING) is “active; positive”.

Take `CC(N)[13C](=O)O` (stereo not drawn): the mutagenic call reads like this: under setting [1], “inactive; negative”; (Test System: AMES SALMONELLA TYPHIMURIUM, Strain/Indicator: TA97, Metabolic Activation: RAT, LIVER, S-9, AROCLOR 1254, Method: PREINCUBATION) “inactive; negative”; (Test System: AMES SALMONELLA TYPHIMURIUM, Strain/Indicator: TA102, Metabolic Activation: NONE, Method: PREINCUBATION) “inactive; negative”; (Test System: AMES SALMONELLA TYPHIMURIUM, Strain/Indicator: TA102, Metabolic Activation: RAT, LIVER, S-9, AROCLOR 1254, Method: PREINCUBATION) “inactive; negative”.

Regarding `CCCCCCCCCCCCCCCCC1CO1` (stereo not drawn), the mutagenic call is, setting by setting: (Test System: AMES SALMONELLA TYPHIMURIUM, Strain/Indicator: TA97, Metabolic Activation: HAMSTER, LIVER, S-9, AROCLOR 1254 (10%), Method: PREINCUBATION) “inactive; negative”; (Test System: AMES SALMONELLA TYPHIMURIUM, Strain/Indicator: TA97, Metabolic Activation: HAMSTER, LIVER, S-9, AROCLOR 1254 (30%), Method: PREINCUBATION) “inactive; negative”; under setting [1], “inactive; negative”; (Test System: AMES SALMONELLA TYPHIMURIUM, Strain/Indicator: TA97, Metabolic Activation: RAT, LIVER, S-9, AROCLOR 1254 (10%), Method: PREINCUBATION) “inactive; negative”; (Test System: AMES SALMONELLA TYPHIMURIUM, Strain/Indicator: TA97, Metabolic Activation: RAT, LIVER, S-9, AROCLOR 1254 (30%), Method: PREINCUBATION) “inactive; negative”; (Test System: AMES SALMONELLA TYPHIMURIUM, Strain/Indicator: TA98, Metabolic Activation: HAMSTER, LIVER, S-9, AROCLOR 1254 (10%), Method: PREINCUBATION) “inactive; negative”. The mutagenic call was “inactive; negative” (Test System: AMES SALMONELLA TYPHIMURIUM, Strain/Indicator: TA98, Metabolic Activation: HAMSTER, LIVER, S-9, AROCLOR 1254 (30%), Method: PREINCUBATION); “inactive; negative” (Test System: AMES SALMONELLA TYPHIMURIUM, Strain/Indicator: TA98, Metabolic Activation: NONE, Method: PREINCUBATION); “inactive; negative” (Test System: AMES SALMONELLA TYPHIMURIUM, Strain/Indicator: TA98, Metabolic Activation: RAT, LIVER, S-9, AROCLOR 1254 (10%), Method: PREINCUBATION); “inactive; negative” (Test System: AMES SALMONELLA TYPHIMURIUM, Strain/Indicator: TA98, Metabolic Activation: RAT, LIVER, S-9, AROCLOR 1254 (30%), Method: PREINCUBATION); “inactive; negative” (Test System: AMES SALMONELLA TYPHIMURIUM, Strain/Indicator: TA100, Metabolic Activation: HAMSTER, LIVER, S-9, AROCLOR 1254 (10%), Method: PREINCUBATION); “inactive; negative” (Test System: AMES SALMONELLA TYPHIMURIUM, Strain/Indicator: TA100, Metabolic Activation: HAMSTER, LIVER, S-9, AROCLOR 1254 (30%), Method: PREINCUBATION). Further, the mutagenic call by setting is: (Test System: AMES SALMONELLA TYPHIMURIUM, Strain/Indicator: TA100, Metabolic Activation: NONE, Method: PREINCUBATION) “inactive; negative”; (Test System: AMES SALMONELLA TYPHIMURIUM, Strain/Indicator: TA100, Metabolic Activation: RAT, LIVER, S-9, AROCLOR 1254 (10%), Method: PREINCUBATION) “inactive; negative”; (Test System: AMES SALMONELLA TYPHIMURIUM, Strain/Indicator: TA100, Metabolic Activation: RAT, LIVER, S-9, AROCLOR 1254 (30%), Method: PREINCUBATION) “inactive; negative”; (Test System: AMES SALMONELLA TYPHIMURIUM, Strain/Indicator: TA1535, Metabolic Activation: HAMSTER, LIVER, S-9, AROCLOR 1254 (10%), Method: PREINCUBATION) “inactive; negative”; (Test System: AMES SALMONELLA TYPHIMURIUM, Strain/Indicator: TA1535, Metabolic Activation: HAMSTER, LIVER, S-9, AROCLOR 1254 (30%), Method: PREINCUBATION) “inactive; negative”; (Test System: AMES SALMONELLA TYPHIMURIUM, Strain/Indicator: TA1535, Metabolic Activation: NONE, Method: PREINCUBATION) “inactive; negative”. The mutagenic call (Test System: AMES SALMONELLA TYPHIMURIUM, Strain/Indicator: TA1535, Metabolic Activation: RAT, LIVER, S-9, AROCLOR 1254 (10%), Method: PREINCUBATION) is “inactive; negative”; the mutagenic call (Test System: AMES SALMONELLA TYPHIMURIUM, Strain/Indicator: TA1535, Metabolic Activation: RAT, LIVER, S-9, AROCLOR 1254 (30%), Method: PREINCUBATION) is “inactive; negative”; the mutagenic call (Test System: AMES SALMONELLA TYPHIMURIUM, Strain/Indicator: TA1537, Metabolic Activation: HAMSTER, LIVER, S-9, AROCLOR 1254 (10%), Method: PREINCUBATION) was “inactive; negative”; the mutagenic call (Test System: AMES SALMONELLA TYPHIMURIUM, Strain/Indicator: TA1537, Metabolic Activation: HAMSTER, LIVER, S-9, AROCLOR 1254 (30%), Method: PREINCUBATION) was “inactive; negative”; the mutagenic call (Test System: AMES SALMONELLA TYPHIMURIUM, Strain/Indicator: TA1537, Metabolic Activation: NONE, Method: PREINCUBATION) was “inactive; negative”; the mutagenic call (Test System: AMES SALMONELLA TYPHIMURIUM, Strain/Indicator: TA1537, Metabolic Activation: RAT, LIVER, S-9, AROCLOR 1254 (10%), Method: PREINCUBATION) was “inactive; negative”. The mutagenic call (Test System: AMES SALMONELLA TYPHIMURIUM, Strain/Indicator: TA1537, Metabolic Activation: RAT, LIVER, S-9, AROCLOR 1254 (30%), Method: PREINCUBATION) was “inactive; negative”.

On to `ClCc1c2ccccc2c(CCl)c2ccccc12`, for which the mutagenic call (Test System: AMES SALMONELLA TYPHIMURIUM, Strain/Indicator: TA1537, Metabolic Activation: NONE, Method: STANDARD PLATE) is “active; positive”.
